# Literature values as cited in patent US11154586B2, “Treating sexual dysfunction” (Olive Therapeutics, LLC, priority 2016, dated 2021).
# Columns and labels:
# [1] = intranasal, men or couples, single agent
compound,measurement,setting,value
CC[C@H](C)[C@@H]1NC(=O)[C@H](Cc2ccc(O)cc2)NC(=O)[C@@H](N)CSSC[C@@H](C(=O)N2CCC[C@H]2C(=O)N[C@@H](CC(C)C)C(=O)NCC(N)=O)NC(=O)[C@H](CC(N)=O)NC(=O)[C@H](CCC(N)=O)NC1=O [oxytocin],"Effect on sexual function, Case 1","person, 2 hours after intranasal 16 IU, on progesterone only pill, repeated 2 days later","increased sexual desire, stronger uterine contractions during orgasm, and greater satisfaction"
same,"Effect on sexual function, Case 2","person, intranasal, off-label for social anxiety, apparently also on lisdexamfetamine",broad spectrum enhancement of the patient's sexual function
same,"Effect on anorgasmia, Case 3","person, intranasal, earlier dopamine agonist and growth hormone",sustained restoration of their ability to achieve orgasm
same,"Effect on sexual function, Case 1, third administration","same person, 2 weeks later, after switch to barrier method",did not produce the same sexual enhancement
same,Effect on biological measures of sexual functioning,[1],does not alter biological measures of sexual functioning
